These are literature values, as cited in paper PMC2766265 (Tetrahedron, 2008).

Consider `C[C@]12C[C@H](c3ccoc3)OC(=O)[C@H]1CC[C@@]13COC(=O)[C@@H]1C=CC[C@H]23` [Compound 2, salviarin], for which the “binding to any of the opioid-receptor subtypes” value in the data set on opioid-receptor subtypes is given as “none of these diterpenes showed significant binding”.
With `COC(=O)[C@@H]1C[C@H](OC(C)=O)C(=O)[C@H]2[C@@]1(C)CC[C@H]1C(=O)O[C@H](c3ccoc3)C[C@]21C` [Compound 1, Salvinorin A], in the data set on κ-opioid receptor, the “agonist activity at the κ-opioid receptor” value is “potent and selective agonist”.
Take `CC(=O)OC1C=CC2C(=O)OCC23CCC2C(=O)OC(c4ccoc4)C(OC(C)=O)C2(C)C13` (stereo not drawn) [Compound 3, splendidin]: in the data set on opioid-receptor subtypes, the “binding to any of the opioid-receptor subtypes” value was “none of these diterpenes showed significant binding”.
